Test results published in PMC6278539, “Selective Inhibition of Human AKR1B10 by n-Humulone, Adhumulone and Cohumulone Isolated from Humulus lupulus Extract” (Molecules, 2018).

What was measured:
AKR1B1 = target: T1, AKR1B1 (Homo sapiens, UniProt P15121); test: AKR1B1 inhibition, DL-glyceraldehyde reduction (NADPH decrease at 340 nm); assay type: biochemical; settings: AKR1B1, Glyceraldehyde [50 µM]
T1 construct: 6xHis; made in house; host or cells: E. coli BL21 (DE3)
Description: (§1) The carbonyl-reducing enzymes AKR1A1, AKR1B1, AKR1B10 were prepared in an Escherichia coli expression system according to previously published methods: plasmids of AKR1A1 and AKR1B1 were friendly gifts from Prof. Dr. Vladimir Wsol and Dr. Nina Kassner; information about production and purification of AKR1B10 [19] has been published before (sequences of all obtained plasmids containing the specific inserts were verified by sequencing (MWG Eurofins)). The plasmids were then transformed in E. coli BL21 (DE3) cells. For overexpression of 6× His-tagged enzymes, a 400 mL culture (containing the appropriate antibiotic; plasmid dependent) was grown to optical density of 0.6 at 600 nm at 37 °C. Expression was induced by adding isopropyl-1-thio-galactopyranoside to the culture medium (final concentration of 1 mM). After 3 h, cells were harvested by centrifugation (6000× g, 15 min) and resuspended in 20 mL PBS-I buffer (20 mM Na2H2PO4, 500 mM NaCl, 10 mM imidazole, 10% v/v glycerol, pH 7.4). Cell disruption was performed by ultrasonication with cooling on ice to avoid heating. […] Purification progress was monitored by SDS-PAGE of the obtained fractions (not shown). Enzyme concentrations were determined using a Qubit 2.0 fluorometric quantitation system (Life Technologies, Carlsbad, CA, USA) according to the manufacturer’s instructions.
(§2) Catalytic properties were determined by measuring the decrease in absorbance at 340 nm (Cary 100 scan photometer, Varian, CA, USA). […]
(§3) For inhibition studies, stock solutions of inhibitors were prepared in H2O (iso-α-acid mixture) and DMSO (α-acid mixture and compounds 1–3 purified from the same mixture). […] The percentage of inhibition was calculated considering the activity in the absence of inhibitor to be 100%. […]
For IC50 determination, experimental data were normalised and fitted to a sigmoidal curve as implemented in GraphPad Prism6 (GraphPad Software Inc., La Jolla, CA, USA). Whenever tight-binding inhibition was observed, the inhibition constant Ki was determined by fitting inhibition data to the Morrison equation [43]. […]

AKR1A1 = target: T2, AKR1A1 (Homo sapiens, UniProt P14550); test: AKR1A1 inhibition, DL-glyceraldehyde reduction (NADPH decrease at 340 nm); assay type: biochemical; settings: AKR1A1, Glyceraldehyde [3.6 mM]
T2 construct: 6xHis; made in house; host or cells: E. coli BL21 (DE3)
T2 sequence (P14550 1-325): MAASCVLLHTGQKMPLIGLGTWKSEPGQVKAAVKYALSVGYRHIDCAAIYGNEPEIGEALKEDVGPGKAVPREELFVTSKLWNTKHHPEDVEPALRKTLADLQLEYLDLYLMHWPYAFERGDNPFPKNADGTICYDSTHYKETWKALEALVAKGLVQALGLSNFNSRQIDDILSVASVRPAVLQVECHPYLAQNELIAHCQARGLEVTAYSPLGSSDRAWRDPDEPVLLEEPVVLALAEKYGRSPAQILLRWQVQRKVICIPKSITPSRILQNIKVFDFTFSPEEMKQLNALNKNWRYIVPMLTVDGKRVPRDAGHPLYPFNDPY
Description: as §1, with “°C.” for “°C. Expression was induced by adding isopropyl-1-thio-galactopyranoside to the culture medium (final concentration of 1 mM). After 3 h, cells were harvested by centrifugation (6000× g, 15 min) and resuspended in 20 mL PBS-I buffer (20 mM Na2H2PO4, 500 mM NaCl, 10 mM imidazole, 10% v/v glycerol, pH 7.4). Cell disruption was performed by ultrasonication with cooling on ice to avoid heating.”
as §2, §3

AKR1B10 [1] = target: T3, AKR1B10 (Homo sapiens, UniProt O60218); test: AKR1B10-mediated farnesal reduction inhibition; assay type: biochemical; settings: for IC50 / Ki: AKR1B10, Farnesal [5 µM], mean ± SD; for Mode of inhibition: AKR1B10, farnesal reduction
T3 construct: 6xHis; made in house; host or cells: E. coli BL21 (DE3)
Description: (§4) The carbonyl-reducing enzymes AKR1A1, AKR1B1, AKR1B10 were prepared in an Escherichia coli expression system according to previously published methods: plasmids of AKR1A1 and AKR1B1 were friendly gifts from Prof. Dr. Vladimir Wsol and Dr. Nina Kassner; information about production and purification of AKR1B10 [19] has been published before (sequences of all obtained plasmids containing the specific inserts were verified by sequencing (MWG Eurofins)). The plasmids were then transformed in E. coli BL21 (DE3) cells. For overexpression of 6× His-tagged enzymes, a 400 mL culture (containing the appropriate antibiotic; plasmid dependent) was grown to optical density of 0.6 at 600 nm at 37 °C. Expression was induced by adding isopropyl-1-thio-galactopyranoside to the culture medium (final concentration of 1 mM). After 3 h, cells were harvested by centrifugation (6000× g, 15 min) and resuspended in 20 mL PBS-I buffer (20 mM Na2H2PO4, 500 mM NaCl, 10 mM imidazole, 10% v/v glycerol, pH 7.4). Cell disruption was performed by ultrasonication with cooling on ice to avoid heating. The sample was subsequently centrifuged at 100,000× g at 4 °C for 1 h. The obtained supernatants containing the respective enzymes were purified using Ni-affinity chromatography (ÄKTA-Purifier; Amersham Pharmacia, Uppsala, Sweden) using PBS-II buffer (20 mM Na2H2PO4, 500 mM NaCl, 500 mM imidazole, 10% v/v glycerol, pH 7.4). Purification progress was monitored by SDS-PAGE of the obtained fractions (not shown). Enzyme concentrations were determined using a Qubit 2.0 fluorometric quantitation system (Life Technologies, Carlsbad, CA, USA) according to the manufacturer’s instructions.
(§5) Catalytic properties were determined by measuring the decrease in absorbance at 340 nm (Cary 100 scan photometer, Varian, CA, USA). A reaction mixture without inhibitor consisted of different concentrations of DL-glyceraldehyde or farnesal, 200 μM NADPH, 0.1 M NaH2PO4 buffer (pH 7.4) and an appropriate amount of enzyme in a total assay volume of 0.8 mL. Final enzyme concentrations in the assay ranged from 222 nM (AKR1A1) to 899 nM (AKR1B10). KM values were obtained by fitting the kinetic data (mean ± SD from at least three experiments) to the Michaelis‒Menten model, as implemented in GraphPad Prism6 (GraphPad Software Inc., La Jolla, CA, USA).
(§6) For inhibition studies, stock solutions of inhibitors were prepared in H2O (iso-α-acid mixture) and DMSO (α-acid mixture and compounds 1–3 purified from the same mixture). […] When collecting data for dose–response curves initial velocities of DL-glyceraldehyde or farnesal reduction (substrate concentration at KM) in the presence of inhibitors were assayed as described above. The percentage of inhibition was calculated considering the activity in the absence of inhibitor to be 100%.
(§7) For IC50 determination, experimental data were normalised and fitted to a sigmoidal curve as implemented in GraphPad Prism6 (GraphPad Software Inc., La Jolla, CA, USA). Whenever tight-binding inhibition was observed, the inhibition constant Ki was determined by fitting inhibition data to the Morrison equation [43]. In order to verify the inhibitory potency, farnesal as an enzyme-specific physiological substrate for AKR1B10 (farnesal; KM = 5 µM) was used to determine inhibition parameters. Enzyme inhibition parameters were assayed as described above. The inhibition mechanism of each compound for AKR1B10 was analysed by plotting IC50-values at different substrate concentrations (at least five inhibitor and substrate concentrations). All data obtained were plotted and analysed using GraphPad Prism6 (GraphPad Software Inc., La Jolla, CA, USA).

AKR1B10 [2] = target: T3, AKR1B10; test: AKR1B10 inhibition, DL-glyceraldehyde reduction (NADPH decrease at 340 nm); assay type: biochemical; settings: for IC50 / Ki: AKR1B10, Glyceraldehyde [4.0 mM], mean ± SD; for Ki: read-out: Ki (Morrison); for Ratio AKR1A1/AKR1B10 / Ratio AKR1B1/AKR1B10: IC50-ratio, glyceraldehyde as substrate
Description: as §4, §5, §6
Initially, the half maximal inhibitory concentrations (IC50 values) were determined for each inhibitor in presence of each enzyme, using the shared substrate DL-glyceraldehyde (set to their specific KM; 3.6 mM, 50 μM and 4 mM for AKR1A1, AKR1B1 and AKR1B10, respectively) to assess specificity amongst the structurally similar members of the AKR-superfamily.
as §7, with “All data obtained were plotted and analysed using GraphPad Prism6 (GraphPad Software Inc., La Jolla, CA, USA).” left out

cyclooxygenase-1 = test system: cyclooxygenase-1; parameters: method as in PMID 10631313; settings: cited from earlier work
cyclooxygenase-2 = target: cyclooxygenase-2; parameters: method as in PMID 10631313; settings: cited from earlier work
AKR1B10 [3] = target: AKR1B10; parameters: method as in PMID 27665999; settings: cited from earlier work
AKR1B10 [4] = test system: AKR1B10; parameters: method as in PMID 23123477; settings: cited from earlier work

T3 sequence (O60218 whole entry): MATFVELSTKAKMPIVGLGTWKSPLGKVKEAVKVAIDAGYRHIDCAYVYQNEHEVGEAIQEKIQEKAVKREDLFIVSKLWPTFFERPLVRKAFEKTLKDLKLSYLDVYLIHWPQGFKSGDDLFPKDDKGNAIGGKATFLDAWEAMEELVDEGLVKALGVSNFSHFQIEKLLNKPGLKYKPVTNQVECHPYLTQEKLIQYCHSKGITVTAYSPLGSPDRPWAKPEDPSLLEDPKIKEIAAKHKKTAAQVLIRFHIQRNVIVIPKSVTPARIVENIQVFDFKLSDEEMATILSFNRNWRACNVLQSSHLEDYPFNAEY

Row | IC50 (AKR1B1) [µM] | IC50 (AKR1B10 [1]) [µM] | Ki (AKR1B10 [1]) [µM] | Mode of inhibition (AKR1B10 [1]) | IC50 (AKR1B10 [2]) [µM] | Ki (AKR1B10 [2]) [µM] | Ratio AKR1A1/AKR1B10 (AKR1B10 [2]) | Ratio AKR1B1/AKR1B10 (AKR1B10 [2]) | Structure (SMILES) | IC50 (AKR1A1) [µM] | inhibition of cyclooxygenase-1 (cyclooxygenase-1) | IC50 (cyclooxygenase-2) [µM] | Ki (AKR1B10 [3]) [µM] | IC50 (AKR1B10 [4]) [µM]
1 | > 125 | 29.8 ± 1.72 | 16.5 ± 1.74 | non-competitive | 1.35 ± 0.07 | 0.7 ± 0.09 | >74 | >93 | CC(C)=CCC1=C(O)C(O)(CC=C(C)C)C(=O)C(C(=O)C(C)C)=C1O (stereo in doubt) [Compound 2, cohumulone] | > 100 | – | – | – | –
2 | > 125 | 29.3 ± 1.53 | 16.8 ± 1.33 | competitive | 5.41 ± 0.42 | 3.27 ± 0.52 | ≥19 | >23 | CCC(C)C(=O)C1=C(O)C(CC=C(C)C)=C(O)[C@](O)(CC=C(C)C)C1=O (stereo partly drawn) [Compound 1, adhumulone] | – | – | – | – | –
3 | – | – | – | – | – | – | – | – | CCCCC/C=C\C/C=C\C/C=C\C/C=C\CCCC(=O)O [arachidonic acid] | – | – | – | 0.26 | –
4 | – | – | – | – | – | – | – | – | CC(C)=CCc1c(O)cc2oc3cc(O)c(O)c(CC=C(C)C)c3c(=O)c2c1O [γ-mangostin] | – | – | – | – | 0.018

Row | Structure (SMILES) | IC50 (AKR1B1) [µM] | IC50 (AKR1B10 [1]) [µM] | Ki (AKR1B10 [1]) [µM] | Mode of inhibition (AKR1B10 [1]) | IC50 (AKR1B10 [2]) [µM] | Ki (AKR1B10 [2]) [µM] | Ratio AKR1A1/AKR1B10 (AKR1B10 [2]) | Ratio AKR1B1/AKR1B10 (AKR1B10 [2]) | IC50 (AKR1A1) [µM] | inhibition of cyclooxygenase-1 (cyclooxygenase-1) | IC50 (cyclooxygenase-2) [µM] | Ki (AKR1B10 [3]) [µM] | IC50 (AKR1B10 [4]) [µM]
5 | CC(C)=CCC1C(=O)C(C(=O)CC(C)C)=C(O)C(O)(CC=C(C)C)C1=O (stereo not drawn) [Compound 3, n-humulone] | > 125 | 7.78 ± 0.43 | 3.94 ± 0.33 | non-competitive | 1.94 ± 0.1 | 0.98 ± 0.12 | >52 | >64 | > 100 | not inhibited at concentrations below 10 µM | 1.6 | – | –
